IC50 and Ki data for five molecules are collected here from BindingDB's records for doi:10.3109/14756366.2012.670807 (Atatürk University, 2013).

The target in assay [1] is Carbonic anhydrase 2 (Homo sapiens, UniProt P00918). Kind of assay: Esterase Assay. As to conditions: pH 7.4. Here is the method: (§1) CA activity was assayed by following the change in absorbance at 348 nm of 4-nitrophenylacetate (NPA) to 4-nitrophenylate ion over a period of 3 min at 25°Cusing a spectrophotometer (CHEBIOS UV-VIS) according to the method described by Verpoorte et al. [Verpoorte et al., J. Biol. Chem., 242:4221-4229] The enzymatic reaction contained 1.4 mL 0.05 M Tris-SO4 buffer (pH 7.4), 1 mL 3 mM 4-NPA, 0.5 mL H2O and 0.1 mL enzyme solution (total volume, 3.0 mL). A reference measurement was obtained by preparing the mixture without the enzyme solution. All measurements were made in triplicate. The Ki values were determined from a series of experiments using three different bromophenols concentrations and 4-NPA as the substrate at five different concentrations to construct Lineweaver-Burk curves [Lineweaver et al., J. Am. Chem. Soc., 57:685-693].

The target in assay [2] is Carbonic anhydrase 1 (Homo sapiens, UniProt P00915). Kind of assay: Esterase Assay. As to conditions: pH 7.4. Here is the method: as §1
Carbonic anhydrase 1, sequence (P00915 whole entry): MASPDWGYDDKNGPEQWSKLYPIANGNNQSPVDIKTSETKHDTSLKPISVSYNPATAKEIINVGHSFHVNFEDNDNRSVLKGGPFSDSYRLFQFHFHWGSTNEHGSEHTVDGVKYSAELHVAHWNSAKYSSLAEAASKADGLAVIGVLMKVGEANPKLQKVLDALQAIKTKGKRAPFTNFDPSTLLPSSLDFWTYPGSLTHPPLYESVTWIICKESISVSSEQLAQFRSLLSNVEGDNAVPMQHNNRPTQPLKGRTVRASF

The term IC50 denotes the concentration at which inhibition is half-maximal. Higher therefore signals weaker potency in that assay. The term Ki denotes the dissociation constant of the complex between target and ligand, obtained from inhibition or displacement. Higher therefore signals weaker binding. Turning to `O=C(c1ccc(O)c(O)c1)c1ccc(O)c(O)c1O` [Carbonic anhydrase isoenzymes inhibitor, 5], in assay [1], half-maximal inhibition (IC50) required 142 µM and the affinity corresponds to a Ki of 23 µM. In assay [2], this molecule came in with a concentration for half-maximal inhibition (IC50) of 27.8 µM and a Ki of 32.5 µM.
In assay [1], `O=C(c1ccc(O)c(O)c1)c1cc(Br)c(O)c(O)c1O` [Carbonic anhydrase isoenzymes inhibitor, 13] registered an IC50 of 18.5 µM and a Ki of 3.25 µM. Moreover, in assay [2], the IC50 came to 6.92 µM and the Ki amounted to 6.77 µM.
On to `O=C(c1cc(O)c(O)cc1Br)c1cc(Br)c(O)c(O)c1O` [Carbonic anhydrase isoenzymes inhibitor, 14], for which the IC50 is 24.5 µM in assay [1] and 3.22 µM in assay [2]. For the same molecule, the Ki came to 28.6 µM in assay [1] and 1.19 µM in assay [2].
In assay [1], `Oc1ccc(Cc2ccc(O)c(O)c2O)cc1O` [Carbonic anhydrase isoenzymes inhibitor, 15] had an IC50 of 79.4 µM and a Ki of 42.5 µM. In assay [2], this molecule displayed an IC50 of 54.3 µM and a Ki of 8.36 µM.
`Oc1cc(Br)c(Cc2cc(Br)c(O)c(O)c2O)cc1O` [Carbonic anhydrase isoenzymes inhibitor, 16] had an IC50 in assay [1] of 63.6 µM. Further, in assay [2], the IC50 was 4.28 µM and the inhibitory constant (Ki) worked out at 2.59 µM.
